In US20260328779A1, “METHODS AND COMPOSITIONS FOR THE DIAGNOSIS AND TREATMENT OF IGA NEPHROPATHY” (Beth Israel Deaconess Medical Center, Inc., priority 2022, published 2026):

Legend:
anti-Tn IgM = assay: Inhibition of anti-Tn antibody binding to Tn glycopeptide array; set-up: species or system human; conditions: glycomimetic 20 mM, 30 min at RT, anti-Tn antibodies C3
Protocol: The Tn glycopeptide microarray was prepared as previously described^77. Briefly, the glycopeptides printed on the microarray is as listed (FIG. 2). Purified anti-Tn antibodies (diluted to […] for IgM, and […] for IgG and IgA detection) in TSM binding buffer (20 mM Tris-HCl, pH 7.4, 150 mM NaCl, 2 mM CaCl2), 2 mM MgCl2, with 1% BSA and 0.05% Tween-20) were added to the respective array slides for 1 h at RT. Alexa Fluor #488-labeled goat anti-human IgM or goat anti-human IgG, or FITC-labeled goat anti-human IgA antibody at 1:400 dilution in TSM binding buffer was used for detection of IgM, IgG, and IgA within purified anti-Tn antibodies. Slides were analyzed on a Genepix^# 4300A microarray scanner (Molecular Devices). Images were analyzed with quantitation software (GenePix® Pro Microarray Analysis Software Ver. 7, Molecular Devices). For inhibition assay, a purified Tn(+)IgA1 produced from CosmcKO Dakiki cells was utilized (See Generation of CosmcKO Dakiki cells using CRISPR-Cas9 system for generating the antibody) to inhibit anti-Tn antibodies binding to microarray and Tn(−)IgA1 produced from Dakiki cells as a […]. Purified anti-Tn antibodies (Cl, 10 mg/ml) in TSM binding buffer was preincubated with 1 mg of purified Tn(+)IgA1, or Tn(−)IgA1 for 30 min at RT. […] Heat map and correlation map of binding preferences were analyzed using GLAD (Glycan Array Dashboard).

anti-Tn CICs = assay: ELISA based glycomimetic inhibition assay (anti-Tn CICs binding to IgA1 glycopeptide); set-up: species or system human; conditions: ID18 with ID19 as baseline, serial dilution (1/3) starting at 10 mM
Protocol: IgA1 glycopeptides (ID18, or ID19 as listed in FIG. 2, 0.01 mg/well) were immobilized using immobilization buffer (NaHCO3/Na2CO3, pH 9.6) in a 96-well plate (Thermo Fisher Scientific, PolySorp) overnight at 4° C. The plate was washed 3× with TSM containing 0.05% tween-20 (TSMT) and added 5% (w/v) BSA in TSMT for 1 h at RT. The plate was incubated with 1 mg/ml of purified anti-Tn CICs from IgAN serum (P3, and pooled with P1-P10; Pmix) or healthy donors (C3, and pooled C1-C10; Cmix) in TSMT containing 0.5% BSA for 1 h at RT. The plate was washed 3× with TSMT and incubated for 1 h with HRP-conjugated goat anti-human IgM at 1:1,000 dilution in TSMT containing 0.5% BSA at RT. The plate was washed 3× with TSMT and developed using TMB substrate solution (Cat #ab171523, Abcam) for 30 min, and the reaction was stopped with 1N HCl. Absorbance (450 nm) was read on an ImageXpress #Pico (Molecular Devices). The half-maximal inhibitory concentration (IC50) was calculated with GraphPad Prism 6.0 (GraphPad Software, Inc.) after subtraction from ID19 as a baseline. For inhibition assay, purified anti-Tn CICs were preincubated with a serial dilution (1/3) of α-methylGalNAc or DiαGalNAc (starting at 10 mM) for 30 min at RT.

[1] = test system: primary human renal mesangial cells; assay: Inhibition of anti-Tn CICs-stimulated mesangial cell proliferation (Ki-67); format: cell-based; conditions: anti-Tn CICs purified from IgAN patients pretreated with 100 mM compound, 30 min at RT
Protocol: […] of serum was mixed with […] of Tn(+)matrix beads or mock beads overnight at 4° C. (10 rpm). Supernatant was collected after pelleting the beads at 500×g for 30 sec at 4° C. After two rounds of such sequential anti-Tn CICs immunodepletion (serum-ID) and its control (serum-Mock), collected serum was filtered by syringe filter unit (Cat #SLHP033RS, Millipore Sigma) before use. Cells were cultured at ~90% confluency in 96-well plate, and starved in Mesangial cell media (Cat #4201) with 0.5% FBS (Cat #0010) and 0.05× mesangial cell growth supplement (MsCGS, Cat #4252) from ScienCell for 24 h at 37° C. prior to stimulation. Cells were stimulated with 5% serum-Mock, 5% serum-ID with or without exogenous anti-Tn CICs (50 ng/[…]/well, total) for 24 h at 37° C. incubator. Cells were fixed with 4% PFA with 0.05% Triton-X-100 in PBS for 20 min at 4° C. Fixed cells were blocked with 5% (vol/vol) goat serum in PBS for 1 h at 4° C., and incubated with anti-Ki-67 antibody (SP6, rabbit IgG, Cat #CRM325B, Biocare Medical, diluted to 1:50) in PBS for 1 h at 4° C. Cells were washed 3× with chilled PBS, and incubated with Alexa Fluor #488-goat anti-rabbit IgG (Cat #A27034, Thermo Fisher Scientific) at 1:400 in PBS for 1 h at 4° C. in the dark. Cells were washed 3× with chilled PBS, and stained with DAPI (diluted to 0.1 mM) in PBS for 10 min at RT, and analyzed using a microscope (AMG EVOS FL digital inverted microscope, Fisher Scientific, ×400 magnification). For inhibition assay, anti-Tn CICs was preincubated with 100 mM α-methylGalNAc, or α-methylGlcNAc in PBS for 30 min at RT. Serum from three healthy controls (C3, C6, and pooled C1-C10; Cmix) and three IgAN (P5, P10, and pooled P1-P10; Pmix) were used in this assay. […] of serum with IgAN (P1-P20) or healthy control (C1-C20) was analyzed on SDS-PAGE gel, and stained with Coomassie.

| Compound | inhibition of anti-Tn antibody (IgM) binding to Tn glycopeptide array (anti-Tn IgM) | inhibition of anti-Tn CICs binding to IgA1 glycopeptide (anti-Tn CICs) | inhibition of anti-Tn CICs binding to IgA1 glycopeptide (anti-Tn CICs; listed as Di αGalNAc) | inhibition of proliferative activity of anti-Tn CICs from IgAN patients toward mesangial cells [1] |
| --- | --- | --- | --- | --- |
| CC(=O)N[C@H]1[C@@H](OCCSCCO[C@H]2O[C@H](CO)[C@H](O)[C@H](O)[C@H]2NC(C)=O)O[C@H](CO)[C@H](O)[C@@H]1O [DiαGalNAc, α-D-2-Ethylthio 2-acetamido-galactopyranosyl α-D-2-Ethylthio 2-acetamido-galactopyranoside] | higher inhibition compared to α-methylGalNAc | A higher inhibition of anti-Tn CICs binding | specifically inhibits the binding of anti-Tn CICs to IgA1 glycopeptide | – |
| CO[C@H]1O[C@H](CO)[C@@H](O)[C@H](O)[C@H]1NC(C)=O [α-methylGlcNAc, reference compound] | – | – | – | did not inhibit the mesangial cell proliferation |
